Assay: Stability constants of Fe3+ chelates by spectrophotometric titration
Assay type: physicochemical
Conditions: for Stability constant, L + H^+ + Fe^3+ -> FeHL / Stability constant, L + Fe^3+ -> FeL / Stability constant, L + OH^- + Fe^3+ -> FeOHL: chelant agent:Fe^3+ 1:1, I=0.10M (NaCl), titration with 0.1 M NaOH pH 2.7 to 12.0, absorbance at 480 nm; for Stability constant, L + H^+ + Fe^3+ -> FeHL: FeHL predominant at pH <4.0; for Stability constant, L + Fe^3+ -> FeL: FeL predominant at pH 4 to 6.5; for Stability constant, L + OH^- + Fe^3+ -> FeOHL: FeOHL predominant at pH >6.5
Protocol: Stability constant of the Fe^3+ chelate compound of Example 4 (CRENEAHA) were determined spectrophotometrically by titration of a 2.22·10^−4 M (12.5 mg/L) and I=0.10M (NaCl) with 0.1 M NaOH from a pH of 2.7 to a pH of 12.0 and measuring the absorbance variation at 480 nm.
Stability constant of the Fe^3+ chelate compound of Example 2 (CREMEAHA) were determined spectrophotometrically by titration of a […] (12.5 mg/L) and I=0.10M (NaCl) with 0.1 M NaOH from a pH of 2.7 to a pH of 12.0 and measuring the absorbance variation at 480 nm.
Stability constants were determined minimizing the difference between calculated absorbance and experimental absorbance by varying the stability constants of Fe^3+. Every assay was repeated four times. The stability constant value for each compound is not dependent on the concentration of the solution used to carry out the spectrophotometric titration.

| Structure (SMILES) | Stability constant, L + H^+ + Fe^3+ -> FeHL | Stability constant, L + Fe^3+ -> FeL | Stability constant, L + OH^- + Fe^3+ -> FeOHL | Stability of the Fe^3+ chelate compared with the Fe^3+ chelate of Example 2 (CREMEAHA) (particularly at high pH) |
| --- | --- | --- | --- | --- |
| Cc1ccc(O)c(C(NCCO)C(=O)O)c1 (stereo not shown) [CREMEAHA] | 33.9 | 28.6 | 21.2 |  |
| Cc1ccc(O)c(C(NCCNCCO)C(=O)O)c1 (stereo not shown) [CRENEAHA] | 37.5 | 33.4 | 26.9 | better stability |
